Source: publication PMC7279038, “Antioxidant and Neuroprotective Effects Induced by Cannabidiol and Cannabigerol in Rat CTX-TNA2 Astrocytes and Isolated Cortexes” (International Journal of Molecular Sciences, 2020)

Legend:
[1] = system: isolated rat cortexes, kynurenic acid (KA); assay: K+ 60 mM neurotoxicity paradigm, kynurenic acid level; conditions: for effect on K+ 60 mM-induced reduction in kynurenic acid (KA) level: CBD 1000 nM, CBG 1 nM
Protocol: (§1) Sprague–Dawley rats (200–250 g) were sacrificed by CO2 inhalation (Italian Health Ministry authorization N. F4738.N.XTQ, delivered on 11th November 2018) and isolated prefrontal cortex specimens were immediately explanted and incubated in thermostatic shaking bath at 37 °C for 1 h (incubation period), in Krebs–Ringer buffer at the following K^+ concentrations:
(§2) Cortexes were stimulated with CBD (1000 nM) and […]. Afterwards, specimens were homogenized in perchloric acid solution (0.05 M) for the extraction and quantification of nitrites, via the aforementioned colorimetric Griess assay, and serotonin (5-HT), 5-hydroxyindoleacetic (5HIIA),3-hydroxykinurenine (3-HK) and kinurenic acid (KA) (ng/mg wet tissue) via high performance liquid chromatography analysis. Additionally, an untargeted proteomic analysis was carried out on the cortex homogenate. The analytical protocols for 5-HT, 5HIIA, 3-HK, KA and protein level determinations are described below. The analyses were conducted in triplicate and in independent facilities with blind modality.
The KA quantitative determination was performed by using a liquid chromatograph (MOD. 1525, Waters Corporation, Milford MA, USA) equipped with a fluorimetric detector (MOD. 2475, Waters Corporation), a C18 reversed-phase column (AcclaimTM 120, 3 µm, 2.1 × 100 mm, Dionex Corporation, Sunnyvale, CA, USA), and an online degasser (Biotech 4-CH degasi compact, LabService, Anzola Emilia, Italy). The separation was conducted in isocratic conditions and the mobile phase consisted of 250 mM zinc acetate, 50 mM sodium acetate, and 3% acetonitrile (pH adjusted to 6.2 with glacial acetic acid), using a flow rate of 1.0 mL/min. In the eluate, the KA was identified and measured fluorimetrically (excitation: 344 nm; emission: 398 nm).

[2] = target: T1, BChE (butyrylcholinesterase) (Equus caballus, UniProt P81908); assay: BChE inhibition, colorimetric cholinesterase assay; type: biochemical, horse; conditions: mean ± S.D., n = 3
T1 construct: horse serum butyrylcholinesterase, EC 3.1.1.8, Sigma Aldrich S.r.L; purchased Sigma Aldrich S.r.L; host or cells: horse serum
T1 sequence (P81908 whole entry): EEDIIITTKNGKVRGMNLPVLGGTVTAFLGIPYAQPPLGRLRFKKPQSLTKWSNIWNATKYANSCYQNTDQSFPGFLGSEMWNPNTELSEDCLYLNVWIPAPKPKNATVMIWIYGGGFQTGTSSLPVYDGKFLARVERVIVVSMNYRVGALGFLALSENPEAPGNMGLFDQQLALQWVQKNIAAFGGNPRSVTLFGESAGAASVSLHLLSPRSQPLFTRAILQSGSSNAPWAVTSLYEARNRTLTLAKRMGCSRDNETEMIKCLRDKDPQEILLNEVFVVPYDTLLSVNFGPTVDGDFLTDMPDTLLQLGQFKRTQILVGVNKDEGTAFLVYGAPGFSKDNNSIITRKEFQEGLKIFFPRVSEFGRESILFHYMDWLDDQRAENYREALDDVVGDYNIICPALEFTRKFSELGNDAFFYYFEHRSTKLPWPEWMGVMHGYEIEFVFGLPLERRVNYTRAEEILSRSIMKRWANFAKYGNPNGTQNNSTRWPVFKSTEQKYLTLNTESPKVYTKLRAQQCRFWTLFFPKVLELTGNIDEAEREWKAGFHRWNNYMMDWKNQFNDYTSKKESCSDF

[3] = system: CTX-TNA2 astrocyte cell line; assay: Apoptosis occurrence, Annexin-V/PI flow cytometry; type: cell-based, rat; conditions: challenged with H2O2; CBD 1000 nM, CBG 1 nM; 24 h, lasting up to 48 h
Protocol: The CTX-TNA2 rat astrocytes were purchased from the European Collection of Cell Cultures (ECACC), Sigma-Aldrich, Milan, Italy, and cultured as already indicated. Cells were grown in Dulbecco’s Modified Eagle Medium supplemented with 10% of FBS and penicillin–streptomycin (100 µgmL^−1) (all from EuroClone SpA Life-Sciences-Division, Milan, Italy) and maintained in a humified atmosphere of 5% CO2 at 37 °C. Cells were subcultivated at a ratio of 1.2 to 1.8 and the medium was changed every 3 days. CTX-TNA2 astrocytes were plated in 25 or 75 cm^2 flasks, according to experimental needing and cells between the eight and the 15 passage were used.
When indicated, the cells were treated with H2O2 300 µM for three hours and different concentrations of CBD (1–1000 nM) and CBG (1–1000 nM). The stock solutions were diluted in cell medium to the point that the concentration of DMSO in the samples was less than 0.0003%. Therefore, the addition of DMSO to the control samples was not necessary.
A FITC Annexin-V apoptosis detection kit (BD Pharmingen, San Diego, CA, USA) was used to assess apoptosis, according to the manufacturer’s instructions. […] After the addition of 200 µL of binding buffer, samples were analyzed with a Cytoflex flow cytometer with the FL1 and FL3 detector in a log mode, using the Cytoexpert analysis software (both from Beckmann Coulter). […]

[4] = target: T2, AChE (acetylcholinesterase) (Electrophorus electricus, UniProt O42275); assay: AChE inhibition, colorimetric cholinesterase assay; type: biochemical, electric eel; conditions: mean ± S.D., n = 3
T2 construct: purchased Sigma Aldrich S.r.l., Milan, Italy Type-VI-S (catalogue number not given)
T2 sequence (O42275 24-633): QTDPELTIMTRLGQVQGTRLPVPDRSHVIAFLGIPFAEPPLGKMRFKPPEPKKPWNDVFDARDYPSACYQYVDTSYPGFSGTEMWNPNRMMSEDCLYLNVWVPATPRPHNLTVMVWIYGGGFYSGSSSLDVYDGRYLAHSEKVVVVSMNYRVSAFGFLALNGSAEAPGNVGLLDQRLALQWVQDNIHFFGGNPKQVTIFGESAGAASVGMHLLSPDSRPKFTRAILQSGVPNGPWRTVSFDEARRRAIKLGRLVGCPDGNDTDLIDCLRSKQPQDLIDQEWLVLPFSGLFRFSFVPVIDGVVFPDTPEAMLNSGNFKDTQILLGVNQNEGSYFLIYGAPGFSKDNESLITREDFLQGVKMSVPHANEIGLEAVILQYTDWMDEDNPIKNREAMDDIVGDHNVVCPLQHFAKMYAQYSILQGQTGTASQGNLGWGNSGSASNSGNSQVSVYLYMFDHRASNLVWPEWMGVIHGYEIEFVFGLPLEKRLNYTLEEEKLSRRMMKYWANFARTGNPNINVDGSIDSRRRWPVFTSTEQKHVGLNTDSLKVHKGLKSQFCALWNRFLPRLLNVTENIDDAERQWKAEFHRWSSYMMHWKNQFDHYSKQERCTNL

[5] = system: isolated rat cortexes, 3-HK; assay: K+ 60 mM neurotoxicity paradigm, 3-HK level; conditions: for effect on K+ 60 mM-induced increase in 3-HK level: CBD 1000 nM, CBG 1 nM
Protocol: as §1, §2
Tissue 3-HK, 5-HT and 5HIIA levels were analyzed through an HPLC apparatus consisting of a Jasco (Tokyo, Japan) PU-2080 chromatographic pump and an ESA (Chelmsford, MA, USA) Coulochem III coulometric detector, equipped with a microdialysis cell (ESA-5014b), a porous graphite working electrode and a solid state palladium reference electrode. The analytical conditions for identification and quantification were selected according to previous studies. Specifically, the analytical cell was set at −0.150 V for detector 1 and at +0.300 V for detector 2, with a range of 100 nA. The chromatograms were monitored at the analytical detector 2. […] Sample concentrations were calculated by linear regression curve (y = bx + m) obtained with standard. Neither internal nor external standards were necessary for analyte quantification in the cortex homogenate, and all tests performed for method validation and yielded results in accordance with limits indicated in official guidelines for applicability in laboratory trials. […]

[6] = system: rat hypothalamic neurons; set-up: method as in PMID 31941059; conditions: ex vivo model, hydrogen peroxide; cited from earlier work
[7] = system: hypothalamic 5-HT; set-up: method as in PMID 31941059; conditions: cited from earlier work

Row | SMILES | effect on K+ 60 mM-induced reduction in kynurenic acid (KA) level [1] | KA level ([1]; basal conditions only) | IC50 [2] [µM] | early apoptosis (Annexin-Vpos/PIneg cells) [3] | IC50 [4] [µM] | effect on K+ 60 mM-induced increase in 3-HK level [5] | 3-HK level ([5]; basal conditions only) | neuroprotection [6] | basal hypothalamic 5-HT levels [7]
1 | CCCCCc1cc(O)c(C/C=C(\C)CCC=C(C)C)c(O)c1 [CBG, cannabigerol] | completely ineffective | increase KA levels | 1480 ± 110 | reduce early apoptosis | 1150 ± 30 | completely ineffective | reduce 3-HK | neuroprotection only at low concentrations | –
2 | C=C(C)[C@@H]1CCC(C)=C[C@H]1c1c(O)cc(CCCCC)cc1O [CBD, Cannabidiol] | successful in blunting | – | 1880 ± 110 | reduce early apoptosis | 1040 ± 20 | successful in blunting | – | – | stimulate basal hypothalamic 5-HT levels
